The record followed here is patent US20100120778A1, “QUINOXALINE-BASED LXR MODULATORS” (Wyeth, priority 2008, published 2010).

Assay [1] concerns the target T1, human LXRβ (Homo sapiens, UniProt P55055).
T1 construct: biotin (biotinylated); made in house; host or cells: E. coli
T1 sequence (P55055 1-460): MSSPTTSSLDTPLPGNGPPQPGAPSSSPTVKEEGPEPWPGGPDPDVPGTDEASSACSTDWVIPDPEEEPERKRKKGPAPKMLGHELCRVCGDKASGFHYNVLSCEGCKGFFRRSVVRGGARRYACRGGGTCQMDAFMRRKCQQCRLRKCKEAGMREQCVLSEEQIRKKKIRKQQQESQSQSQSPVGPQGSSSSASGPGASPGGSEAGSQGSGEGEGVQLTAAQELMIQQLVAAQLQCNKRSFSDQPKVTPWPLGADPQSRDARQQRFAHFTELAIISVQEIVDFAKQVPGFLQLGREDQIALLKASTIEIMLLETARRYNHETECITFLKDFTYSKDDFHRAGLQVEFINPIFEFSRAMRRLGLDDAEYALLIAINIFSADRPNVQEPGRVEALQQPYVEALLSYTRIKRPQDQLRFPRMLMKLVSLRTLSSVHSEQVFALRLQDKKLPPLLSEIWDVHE
Briefly: Ligand-binding test procedure for human LXRβ (3H T0901317 tracer, flash plates). To be noted: biotinylated hLXRβ, tracer 3H T0901317, +4° C. over night. As to the method:
I. Ligand-Binding Test Procedure for Human LXRβ.
Receptor source: E. coli extracted from cells expressing biotinylated hLXRβ. Extract was made in a similar buffer as above, but with 50 mM TRIS.
Washed streptavidin and coated flash plates with wash buffer. Diluted receptor extract to give Bmax˜4000 cpm and add to the wells. Wrapped the plates in aluminum foil and stored them at +4° C. overnight.
(§1) Made a dilution series in DMSO of the test ligands. Made a 5 nM solution of the radioactive tracer in buffer. Mixed 250 μl diluted tracer with 5 μl of the test ligand from each concentration of the dilution series. Washed the receptor-coated flash plates. Added 200 μl per well of the ligand/radiolabel mixture to the receptor-coated flash plates. Wrapped the plates in aluminum foil and incubate at +4° C. over night.
Aspirated wells, and washed the flashed plates. Sealed the plate.
Measured the remaining radioactivity in the plate.

In assay [2] the target is T2, human LXRα (Homo sapiens, UniProt Q13133).
T2 construct: biotin (biotinylated); made in house; host or cells: E. coli
T2 sequence (Q13133 1-447): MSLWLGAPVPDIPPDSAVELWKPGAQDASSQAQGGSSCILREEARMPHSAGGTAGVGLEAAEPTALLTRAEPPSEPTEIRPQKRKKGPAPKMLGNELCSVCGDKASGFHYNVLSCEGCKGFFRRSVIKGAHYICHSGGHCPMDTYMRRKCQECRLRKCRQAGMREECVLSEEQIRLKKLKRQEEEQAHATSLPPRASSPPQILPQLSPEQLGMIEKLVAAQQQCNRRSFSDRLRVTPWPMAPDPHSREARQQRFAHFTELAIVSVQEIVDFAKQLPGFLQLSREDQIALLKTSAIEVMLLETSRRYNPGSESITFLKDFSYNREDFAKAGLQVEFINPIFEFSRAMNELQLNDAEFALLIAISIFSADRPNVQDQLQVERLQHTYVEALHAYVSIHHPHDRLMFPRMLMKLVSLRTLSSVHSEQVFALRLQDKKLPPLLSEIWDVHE
Briefly: Ligand-binding test procedure for human LXRα (3H T0901317 tracer, flash plates). To be noted: biotinylated hLXRα, tracer 3H T0901317, +4° C. over night. Here is the method: II. Ligand-Binding Test Procedure for Human LXRα.
Receptor source: E. coli extract from cells expressing biotinylated hLXRα. Extract was made in a similar buffer as above, but with 50 mM TRIS.
Washed streptavidin and coated flash plates with wash buffer. Diluted receptor extract to give Bmax˜4000 cpm and add to the wells. Wrapped the plates in aluminum foil and stored them at +4° C. over night.
as §1
Aspirated wells, and wash the flashed plates. Sealed the plate. Measured the remaining radioactivity in the plate.

The term IC50 denotes the midpoint of a concentration-inhibition curve. A lower IC50 goes with inhibition by little substance. Turning to `Cc1nc2c(C(F)(F)F)cccc2nc1-c1cc(Oc2cccc(S(=O)(=O)CCCF)c2)ccc1Cl` [Example 75, 2-(2-chloro-5-{3-[(3-fluoropropyl)sulfonyl]phenoxy}phenyl)-3-methyl-5-(trifluoromethyl)-quinoxaline], the IC50 in assay [1] was 287 nM; in assay [2], 2190 nM.

Take `Cc1nc2cccc(C(F)(F)F)c2nc1-c1ccc(-c2cccc(S(C)(=O)=O)c2)cc1F` [Example 6, 3-[3-fluoro-3′-(methylsulfonyl)biphenyl-4-yl]-2-methyl-5-(trifluoromethyl)quinoxaline]: the IC50 in assay [1] is 398 nM; in assay [2] it was above 1000 nM.

On to `CS(=O)(=O)c1cccc(Oc2cccc(-c3cnc4c(Cl)cccc4n3)c2)c1` [Example 8, 5-chloro-2-{3-[3-(methylsulfonyl)phenoxy]phenyl}quinoxaline], for which the IC50 in assay [1] was 1650 nM; in assay [2] it was above 1000 nM.

On to `O=S(=O)(CCCO)c1cccc(Oc2cccc(-c3cnc4cccc(C(F)(F)F)c4n3)c2)c1` [Example 11, 3-[(3-{3-[8-(trifluoromethyl)quinoxalin-2-yl]phenoxy}phenyl)sulfonyl]propan-1-ol], for which the figures for the IC50 in assay [1] and in assay [2] were 2480 nM and above 1000 nM, respectively.

As for `Cc1nc2c(C(F)(F)F)cccc2nc1-c1cc(Oc2cc(Cl)cc(S(C)(=O)=O)c2)ccc1Cl` [Example 60, 2-{2-chloro-5-[3-chloro-5-(methylsulfonyl)phenoxy]phenyl}-3-methyl-5-(trifluoromethyl)-quinoxaline], the IC50 was 159 nM in assay [1] and above 1000 nM in assay [2].

With `Cc1nc2cccc(C(F)(F)F)c2nc1-c1cc(Oc2cc(F)cc(S(C)(=O)=O)c2)ccc1Cl` [Example 64, 3-{2-chloro-5-[3-fluoro-5-(methylsulfonyl)phenoxy]phenyl}-2-methyl-5-(trifluoromethyl)-quinoxaline], the figures for the IC50 in assay [1] and in assay [2] were 89 nM and 638 nM, respectively.

As to `Cc1nc2c(C(F)(F)F)cccc2nc1-c1cccc(Oc2cccc(S(C)(=O)=O)c2)c1` [Example 2, 3-methyl-2-{3-[3-(methylsulfonyl)phenoxy]phenyl}-5-(trifluoromethyl)quinoxaline], the concentration for half-maximal inhibition (IC50) in assay [1] was found to be 127 nM; in assay [2] it was 1020 nM.

In assay [2], `COc1cccc2nc(-c3ccc(-c4cccc(S(C)(=O)=O)c4)cc3)c(C)nc12` [Example 70, 5-methoxy-3-methyl-2-[3′-(methylsulfonyl)biphenyl-4-yl]quinoxaline] yielded an IC50 above 1000 nM.

Turning to `Cc1nc2c(C(F)(F)F)cccc2nc1-c1cc(Oc2cccc(S(C)(=O)=O)c2)ccc1Cl` [Example 36, 2-{2-chloro-5-[3-(methylsulfonyl)phenoxy]phenyl}-3-methyl-5-(trifluoromethyl)quinoxaline], the figures for the IC50 in assay [1] and in assay [2] were 19.5 nM and 292 nM, respectively.

Turning to `Cc1nc2c(C(F)(F)F)cccc2nc1-c1ccc(Oc2cccc(S(C)(=O)=O)c2)cc1` [Example 12, 3-methyl-2-{4-[3-(methylsulfonyl)phenoxy]phenyl}-5-(trifluoromethyl)quinoxaline], the IC50 is 6400 nM in assay [1] and above 1000 nM in assay [2].

Take `Cc1nc2cccc(C#N)c2nc1-c1ccc(-c2cccc(S(C)(=O)=O)c2)cc1` [Example 72, 2-methyl-3-[3′-(methylsulfonyl)biphenyl-4-yl]quinoxaline-5-carbonitrile]: the results for the half-maximal inhibitory concentration (IC50) in assay [1] and in assay [2] were 3020 nM and above 1000 nM, respectively.

Turning to `Cc1nc2c(C(F)(F)F)cccc2nc1-c1cc(Oc2cccc(S(=O)(=O)CCCN)c2)ccc1Cl` [Example 45, 3-[(3-{4-chloro-3-[3-methyl-5-(trifluoromethyl)quinoxalin-2-yl]phenoxy}phenyl)sulfonyl]-propan-1-amine], in assay [1], the IC50 stood at 63 nM.

In assay [1], `Cc1nc2c(C(F)(F)F)cccc2nc1-c1cc(Oc2ccc(S(=O)(=O)CC#N)cc2)ccc1Cl` [Example 41, [(4-{4-chloro-3-[3-methyl-5-(trifluoromethyl)quinoxalin-2-yl]phenoxy}phenyl)sulfonyl]-acetonitrile] registered an IC50 above 1000 nM.

Take `CNS(=O)(=O)c1cccc(-c2ccc(-c3nc4c(C(F)(F)F)cccc4nc3C)cc2)c1` [Example 48, N-methyl-4′-[3-methyl-8-(trifluoromethyl)quinoxalin-2-yl]biphenyl-3-sulfonamide]: the IC50 in assay [1] came to 1090 nM.

In assay [1], `CC(=O)Nc1cccc(-c2ccc(-c3nc4cccc(C(F)(F)F)c4nc3C)cc2)c1` [Example 51, N-{4′-[3-methyl-5-(trifluoromethyl)quinoxalin-2-yl]biphenyl-3-yl}acetamide] gave an IC50 above 1000 nM.

For `CC(C)CS(=O)(=O)c1cccc(Oc2cccc(-c3cnc4cccc(C(F)(F)F)c4n3)c2)c1` [Example 17, 2-{3-[3-(isobutylsulfonyl)phenoxy]phenyl}-8-(trifluoromethyl)quinoxaline], the IC50 in assay [1] is above 1000 nM.

`Cc1nc2cccc(C(F)(F)F)c2nc1-c1cc(Oc2ccc(S(=O)(=O)CC#N)cc2)ccc1Cl` [Example 38, [(4-{4-chloro-3-[3-methyl-8-(trifluoromethyl)quinoxalin-2-yl]phenoxy}phenyl)sulfonyl]-acetonitrile] gave an IC50 in assay [1] above 1000 nM.

The molecule `Cc1nc2c(C#N)cccc2nc1-c1ccc(-c2cccc(S(C)(=O)=O)c2)cc1` [Example 71, 3-methyl-2-[3′-(methylsulfonyl)biphenyl-4-yl]quinoxaline-5-carbonitrile] registered an IC50 in assay [2] above 1000 nM.

Consider `CS(=O)(=O)Nc1cccc(-c2cccc(Oc3cnc4c(Cl)cccc4n3)c2)c1` [Example 85, N-{3′-[(5-Chloroquinoxalin-2-yl)oxy]biphenyl-3-yl}methanesulfonamide], for which the IC50 in assay [1] worked out at 257 nM.

`Cc1nc2c(C(F)(F)F)cccc2nc1-c1ccc(-c2ccc(C(=O)N3CCCC3)cc2)cc1` [Example 54, 3-methyl-2-[4′-(pyrrolidin-1-ylcarbonyl)biphenyl-4-yl]-5-(trifluoromethyl)quinoxaline] came in with an IC50 in assay [1] above 1000 nM.

`Cc1nc2c(Cl)cccc2nc1Oc1cccc(-c2cccc(NS(C)(=O)=O)c2)c1` [Example 90, N-{3′-[(5-chloro-3-methylquinoxalin-2-yl)oxy]biphenyl-3-yl}methanesulfonamide] returned an IC50 in assay [1] above 1000 nM.

Molecule `Cc1nc2c(Cl)cccc2nc1Oc1ccc(-c2cccc(S(N)(=O)=O)c2)cc1` [Example 92, 4′-[(5-chloro-3-methylquinoxalin-2-yl)oxy]biphenyl-3-sulfonamide] returned an IC50 in assay [1] of 2470 nM.

In turn, `COc1cccc2nc(C)c(-c3ccc(-c4cccc(S(C)(=O)=O)c4)cc3)nc12` [Example 69, 5-methoxy-2-methyl-3-[3′-(methylsulfonyl)biphenyl-4-yl]quinoxaline] returned an IC50 in assay [1] above 1000 nM.

Take `Cc1nc2cccc(C(F)(F)F)c2nc1-c1cc(Oc2ccccc2S(C)(=O)=O)ccc1Cl` [Example 44, 3-{2-chloro-5-[2-(methylsulfonyl)phenoxy]phenyl}-2-methyl-5-(trifluoromethyl)quinoxaline]: the IC50 in assay [1] was above 1000 nM.

As for `CNS(=O)(=O)c1cccc(-c2ccc(Oc3cnc4c(Cl)cccc4n3)cc2)c1` [Example 86, 4′-[(5-Chloroquinoxalin-2-yl)oxy]-N-methylbiphenyl-3-sulfonamide], the concentration for half-maximal inhibition (IC50) in assay [1] was above 1000 nM.

Consider `Cc1nc2c(C(F)(F)F)cccc2nc1-c1ccc(-c2cccc(S(C)(=O)=O)c2)cc1F` [Example 28, 2-[3-fluoro-3′-(methylsulfonyl)biphenyl-4-yl]-3-methyl-5-(trifluoromethyl)quinoxaline], for which the IC50 in assay [1] was above 1000 nM.

`CS(=O)(=O)c1cccc(-c2ccc(-c3cnc4cccc(C(F)(F)F)c4n3)cc2)c1` [Example 25, 2-[3′-(methylsulfonyl)biphenyl-4-yl]-8-(trifluoromethyl)quinoxaline] displayed an IC50 in assay [1] above 1000 nM.

In assay [1], `CS(=O)(=O)c1cccc(-c2ccc(-c3cnc4c(C(F)(F)F)cccc4n3)cc2)c1` [Example 22, 2-[3′-(methylsulfonyl)biphenyl-4-yl]-5-(trifluoromethyl)quinoxaline] yielded an IC50 above 1000 nM.
